Patent US6846496B1, “Treatment of osteoporosis” (Orion Corporation, priority 1999, dated 2005)
Values joined by “and” are separate entries in the source; they are usually repeats but may differ in a detail not shown here. Equal entries are not always repeated.

Assay: Comparative clinical study: bone mineral density by dual-energy X-ray absorptiometry at vertebrae (L2-L4) and femoral neck
Assay type: in vivo, postmenopausal women
Conditions: 48 months; for increase in bone mineral density in the vertebrae (mean percentage change) / increase in bone mineral density in the femoral neck: all subjects; for increase in bone mineral density in the femoral neck (percentage change) / increase in bone mineral density in the vertebrae (mean change from baseline): osteopenic/osteoporotic subjects; for mean change from baseline in BMD in vertebrae: subjects with normal BMD at baseline
From the text: The subjects used in the study were 419 postmenopausal women, aged 45 to 65 years. Eligible women had to be at least 3 years postmenopausal with normal gynecological findings, an intact uterus and a body mass index of 30 or less. Major medical exclusion criteria included endometrial hyperplasia and pathological mammography findings, prior hormone-dependent malignancies, severe thyroid diseases, and other criteria typical for HRT studies. Excessive smokers and alcohol abusers were excluded. Otherwise the women were not required to change their daily diet or other lifestyle habits for the study period.
Subjects were randomly assigned to six treatment groups to receive one tablet daily containing one of the following dose combinations: 1 mg or 2 mg of estradiolvalerate (E2V) combined to 2.5 mg or 5 mg of medroxyprogestrone acetate (MPA) (Indivina®, Orion Corporation, Espoo, Finland).
Groups changing from 1 mg E2V to 2 mg E2V irrespective of the MPA (Group I and II) were pooled together. Groups receiving 1 mg of E2V throughout the study irrespective of the MPA dose (Group V and VI) were pooled together. Also groups receiving 2 mg of E2V throughout the study irrespective of the MPA dose (Group III and IV) were pooled together. Pooling was considered justified since MPA is not expected to affect the response of estrogen on bone mineral density (BMD).
The bone mineral densities at the vertebrae and the hip were measured using dual-energy X-ray absorptiometry (DPX) at baseline, 6-, 12-, 24, 36- and 48-month follow-up visits, and at premature discontinuation. The BMD from the hip was measured by three separate measurements at the femur neck, Ward's triangle, major trochanter and BMD from the vertebrae was measured at L2-L4. In addition, the area and bone mineral content (BMC) of vertebrae L2-L4 were determined.
Results were further analysed to compare the effect varying dosages on BMD in groups that had either normal, osteopenic or osteoporotic BMD value at baseline. Subjects were classified as osteopenic if the BMD was 0.90 to 1.08 g/cm^2 in vertebrae (L2-L4) and 0.68 to 0.86 g/cm^2 in femoral neck (corresponds to T score between −1 and −2.5 in Finnish population). BMD was regarded as normal if the values were above 1.08 g/cm^2 in vertebrae and above 0.86 g/cm^2 in femoral neck. Values below 0.90 g/cm^2 in vertebrae and below 0.68 /cm^2 in femoral neck were considered as osteoporotic.

[1] = daily 1 mg E2V first 6 months then 2 mg E2V

Compound: CCCCC(=O)O[C@H]1CC[C@H]2[C@@H]3CCc4cc(O)ccc4[C@H]3CC[C@]12C [E2V, estradiol valerate]
- increase in bone mineral density in the vertebrae (mean percentage change) (daily 1 mg E2V first 6 months then 2 mg E2V (Groups I+II pooled, with MPA)): 8.9%
- increase in bone mineral density in the femoral neck [1]: 4.2% and 4.3%
- increase in bone mineral density in the vertebrae (mean percentage change) (daily 1 mg E2V whole term (Groups V+VI pooled, with MPA)): 6.2%
- increase in bone mineral density in the femoral neck (daily 1 mg E2V whole term): 2.9%
- increase in bone mineral density in the vertebrae (mean percentage change) (daily 2 mg E2V whole term (Groups III+IV pooled, with MPA)): 7.4%
- increase in bone mineral density in the femoral neck (daily 2 mg E2V whole term): 2.9%
- increase in bone mineral density in the femoral neck (percentage change) [1]: 6.4%
- increase in bone mineral density in the vertebrae (mean change from baseline) [1]: 9.4%
- increase in bone mineral density in the femoral neck (percentage change) (daily 1 mg E2V whole term): 3.8%
- increase in bone mineral density in the vertebrae (mean change from baseline) (daily 1 mg E2V whole term): 7.7%
- increase in bone mineral density in the femoral neck (percentage change) (daily 2 mg E2V whole term): 3.5%
- increase in bone mineral density in the vertebrae (mean change from baseline) (daily 2 mg E2V whole term): 7.3%
- mean change from baseline in BMD in vertebrae [1]: 8.3%
- mean change from baseline in BMD in vertebrae (daily 1 mg E2V whole term): 4.7%
- mean change from baseline in BMD in vertebrae (daily 2 mg E2V whole term): 7.5%
